Patent US10092551B2, “Spiro-thiazolones” (Hoffmann-La Roche Inc., priority 2014, dated 2018)
Structures can show the parent of a compound that is named as a salt.

Target: human V1a receptor (Homo sapiens (Human), UniProt P37288)
Assay: human V1a receptor binding studies (3H-Vasopressin, SPA beads)
Conditions: membranes of HEK293 cells transiently transfected with human V1a receptor, Ki by Cheng-Prussoff
Description: The human V1a receptor was cloned by RT-PCR from total human liver RNA. The coding sequence was subcloned in an expression vector after sequencing to confirm the identity of the amplified sequence. […] Cell membranes were prepared from HEK293 cells transiently transfected with the expression vector and grown in 20 liter fermenters with the following protocol.
50 g of cells are re-suspended in 30 ml freshly prepared ice cold Lysis buffer (50 mM HEPES, 1 mM EDTA, 10 mM MgCl2 adjusted to pH=7.4+complete cocktail of protease inhibitor (Roche Diagnostics)). Homogenized with Polytron for 1 min and sonicated on ice for 2×2 minutes at 80% intensity (Vibracell sonicator). The preparation is centrifuged 20 min at 500 g at 4° C., the pellet is discarded and the supernatant centrifuged 1 hour at 43,000 g at 4° C. (19,000 rpm). The pellet is re-suspended in 12.5 ml Lysis buffer+12.5 ml Sucrose 20% and homogenized using a Polytron for 1-2 min. The protein concentration is determined by the Bradford method and aliquots are stored at −80° C. until use. For binding studies 60 mg Yttrium silicate SPA beads (Amersham) are mixed with an aliquot of membrane in binding buffer (50 mM Tris, 120 mM NaCl, 5 mM KCl, 2 mM CaCl2, 10 mM MgCl2) for 15 minutes with mixing. 50 μl of bead/membrane mixture is then added to each well of a 96 well plate, followed by 50 μl of 4 nM 3H-Vasopressin (American Radiolabeled Chemicals). For total binding measurement 100 μl of binding buffer are added to the respective wells, for non-specific binding 100 μl of 8.4 mM cold vasopressin and for compound testing 100 μl of a serial dilution of each compound in 2% DMSO. The plate is incubated 1 h at room temperature, centrifuged 1 min at 1000 g and counted on a Packard Top-Count. Non-specific binding counts are subtracted from each well and data is normalized to the maximum specific binding set at 100%. To calculate an IC 50 the curve is fitted using a non-linear regression model (XLfit) and the Ki is calculated using the Cheng-Prussoff equation.

human V1a receptor, sequence (P37288 whole entry): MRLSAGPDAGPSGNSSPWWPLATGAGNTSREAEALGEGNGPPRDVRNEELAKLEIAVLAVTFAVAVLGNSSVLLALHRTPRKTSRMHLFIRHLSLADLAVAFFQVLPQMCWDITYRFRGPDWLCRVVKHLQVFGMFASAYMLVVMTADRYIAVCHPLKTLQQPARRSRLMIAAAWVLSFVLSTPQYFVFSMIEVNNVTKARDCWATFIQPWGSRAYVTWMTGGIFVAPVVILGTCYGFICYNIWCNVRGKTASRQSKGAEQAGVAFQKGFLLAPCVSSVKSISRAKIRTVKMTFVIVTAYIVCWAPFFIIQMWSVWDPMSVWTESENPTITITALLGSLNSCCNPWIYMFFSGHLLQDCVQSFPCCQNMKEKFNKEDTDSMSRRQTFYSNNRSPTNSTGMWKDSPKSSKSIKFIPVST

SMILES	pKi hV1a
CC(=C1SC(N2CCC3(CC2)OCc2ccccc23)=NC1=O)c1c(C)noc1C (stereo in doubt) [Example 105, (5E)-5-[1-(3,5-dimethyl-1,2-oxazol-4-yl)ethylidene]-2-(1′H,3H-spiro[2-benzofuran-1,4′-piperidin]-1′-yl)-1,3-thiazol-4(5H)-one]	8.7
C/C(=C1/SC(N2CCC3(CC2)OCc2ccccc23)=NC1=O)c1ccc(Cl)cc1 [Example 1, (5E/Z)-5-[1-(4-chlorophenyl)ethylidene]-2-(1′H,3H-spiro[2-benzofuran-1,4′-piperidin]-1′-yl)-1,3-thiazol-4(5H)-one]	8.9
C/C(=C1/SC(N2CCC3(CC2)OCc2cccnc23)=NC1=O)c1ccc(Cl)cc1 [Example 2, (5E/Z)-5-[1-(4-chlorophenyl)ethylidene]-2-(1′H,5H-spiro[furo[3,4-b]pyridine-7,4′-piperidin]-1′-yl)-1,3-thiazol-4(5H)-one]	9.0
C/C(=C1/SC(N2CCC3(CC2)OC(=O)c2ccccc23)=NC1=O)c1ccc(Cl)cc1 [Example 3, 1′-{(5E/Z)-5-[1-(4-chlorophenyl)ethylidene]-4-oxo-4,5-dihydro-1,3-thiazol-2-yl}-3H-spiro[2-benzofuran-1,4′-piperidin]-3-one]	9.0
C/C(=C1/SC(N2CCC3(CC2)OCc2ccncc23)=NC1=O)c1ccc(Cl)cc1 [Example 4, (5E/Z)-5-[1-(4-chlorophenyl)ethylidene]-2-(1H,1′H-spiro[furo[3,4-c]pyridine-3,4′-piperidin]-1′-yl)-1,3-thiazol-4(5H)-one and (5Z)-5-[1-(4-chlorophenyl)ethylidene]-2-(1H,1′H-spiro[furo[3,4-c]pyridine-3,4′-piperidin]-1′-yl)-1,3-thiazol-4(5H)-one]	9.0
C/C(=C1/SC(N2[C@@H]3CC[C@H]2C[C@@]2(C3)OC(=O)c3ccccc32)=NC1=O)c1ccc(Cl)cc1 [Example 5, 8-{(5E/Z)-5-[1-(4-chlorophenyl)ethylidene]-4-oxo-4,5-dihydro-1,3-thiazol-2-yl}-3′H-spiro[8-azabicyclo[3.2.1]octane-3,1′-[2]benzofuran]-3′-one]	8.9
C/C(=C1/SC(N2CCC3(CC2)OCc2ncccc23)=NC1=O)c1ccc(Cl)cc1 [Example 6, (5E/Z)-5-[1-(4-chlorophenyl)ethylidene]-2-(1′H,7H-spiro[furo[3,4-b]pyridine-5,4′-piperidin]-1′-yl)-1,3-thiazol-4(5H)-one]	9.3
C/C(=C1/SC(N2CCC3(CC2)OCc2ccccc23)=NC1=O)c1ccc(C)nc1 [Example 7, (5E/Z)-5-[1-(6-methylpyridin-3-yl)ethylidene]-2-(1′H,3H-spiro[2-benzofuran-1,4′-piperidin]-1′-yl)-1,3-thiazol-4(5H)-one]	8.9
O=C1N=C(N2CCC3(CC2)OCc2ccccc23)S/C1=C\c1ccc(Cl)cc1 [Example 8, (5Z)-5-(4-chlorobenzylidene)-2-(1′H,3H-spiro[2-benzofuran-1,4′-piperidin]-1′-yl)-1,3-thiazol-4(5H)-one]	7.8
O=C1N=C(N2CCC3(CC2)OCc2ccccc23)S/C1=C\c1ccccc1 [Example 9, (5Z)-5-benzylidene-2-(1′H,3H-spiro[2-benzofuran-1,4′-piperidin]-1′-yl)-1,3-thiazol-4(5H)-one]	8.4
O=C1N=C(N2CCC3(CC2)OCc2ccccc23)S/C1=C1/CCc2cc(Cl)ccc21 [Example 10, (5E/Z)-5-(5-chloro-2,3-dihydro-1H-inden-1-ylidene)-2-(1′H,3H-spiro[2-benzofuran-1,4′-piperidin]-1′-yl)-1,3-thiazol-4(5H)-one]	6.9
O=C1N=C(N2CCC3(CC2)OCc2ccccc23)S/C1=C1/CCCc2cc(Cl)ccc21 [Example 11, (5E/Z)-5-(6-chloro-3,4-dihydronaphthalen-1(2H)-ylidene)-2-(1′H,3H-spiro[2-benzofuran-1,4′-piperidin]-1′-yl)-1,3-thiazol-4(5H)-one]	8.4
C/C(=C1/SC(N2CCC3(CC2)OCc2ccccc23)=NC1=O)c1cccc(Cl)c1 [Example 12, (5E/Z)-5-[1-(3-chlorophenyl)ethylidene]-2-(1′H,3H-spiro[2-benzofuran-1,4′-piperidin]-1′-yl)-1,3-thiazol-4(5H)-one]	8.2
CC/C(=C1/SC(N2CCC3(CC2)OCc2ccccc23)=NC1=O)c1ccc(Cl)cc1 [Example 13, (5E/Z)-5-[1-(4-chlorophenyl)propylidene]-2-(1′H,3H-spiro[2-benzofuran-1,4′-piperidin]-1′-yl)-1,3-thiazol-4(5H)-one]	8.0
C/C(=C1/SC(N2CCC3(CC2)OCc2ccccc23)=NC1=O)c1ccccc1Cl [Example 14, (5E/Z)-5-[1-(2-chlorophenyl)ethylidene]-2-(1′H,3H-spiro[2-benzofuran-1,4′-piperidin]-1′-yl)-1,3-thiazol-4(5H)-one]	8.5
COCC(COC)=C1SC(N2CCC3(CC2)OCc2ccccc23)=NC1=O [Example 15, 5-(1,3-dimethoxypropan-2-ylidene)-2-(1′H,3H-spiro[2-benzofuran-1,4′-piperidin]-1′-yl)-1,3-thiazol-4(5H)-one]	8.8
C/C(=C1/SC(N2CCC3(CC2)OCc2ccccc23)=NC1=O)c1ccccc1 [Example 16, (5E/Z)-5-(1-phenylethylidene)-2-(1′H,3H-spiro[2-benzofuran-1,4′-piperidin]-1′-yl)-1,3-thiazol-4(5H)-one]	8.5
O=C1N=C(N2CCC3(CC2)OCc2ccccc23)S/C1=C(/c1ccc(Cl)cc1)C(F)(F)F [Example 17, (5Z)-5-[1-(4-chlorophenyl)-2,2,2-trifluoroethylidene]-2-(1′H,3H-spiro[2-benzofuran-1,4′-piperidin]-1′-yl)-1,3-thiazol-4(5H)-one]	8.5
O=C1N=C(N2CCC3(CC2)OCc2ccccc23)S/C1=C(\c1ccc(Cl)cc1)C(F)(F)F [Example 18, (5E)-5-[1-(4-chlorophenyl)-2,2,2-trifluoroethylidene]-2-(1′H,3H-spiro[2-benzofuran-1,4′-piperidin]-1′-yl)-1,3-thiazol-4(5H)-one]	9.1
O=C1N=C(N2CCC3(CC2)OCc2ccccc23)S/C1=C1/CCCc2c(Cl)cccc21 [Example 19, (5E/Z)-5-(5-chloro-3,4-dihydronaphthalen-1(2H)-ylidene)-2-(1′H,3H-spiro[2-benzofuran-1,4′-piperidin]-1′-yl)-1,3-thiazol-4(5H)-one]	7.7
O=C1N=C(N2CCC3(CC2)OCc2ccccc23)S/C1=C1/CCCc2ccc(Cl)cc21 [Example 20, (5E/Z)-5-(7-chloro-3,4-dihydronaphthalen-1 (2H)-ylidene)-2-(1′H,3H-spiro[2-benzofuran-1,4′-piperidin]-1′-yl)-1,3-thiazol-4(5H)-one]	9.0
CC(C)(C)/C(=C1/SC(N2CCC3(CC2)OCc2ccccc23)=NC1=O)c1ccc(Cl)cc1 [Example 21, (5E/Z)-5-[1-(4-chlorophenyl)-2,2-dimethylpropylidene]-2-(1′H,3H-spiro[2-benzofuran-1,4′-piperidin]-1′-yl)-1,3-thiazol-4(5H)-one]	7.9
O=C1N=C(N2CCC3(CC2)OCc2ccccc23)S/C1=C(\c1ccc(Cl)cc1)C1CC1 [Example 22, (5E/Z)-5-[(4-chlorophenyl)(cyclopropyl)methylidene]-2-(1′H,3H-spiro[2-benzofuran-1,4′-piperidin]-1′-yl)-1,3-thiazol-4(5H)-one]	7.8
O=C1N=C(N2CCC3(CC2)OCc2ccccc23)S/C1=C(/CF)c1ccc(Cl)cc1 [Example 23, (5E/Z)-5-[1-(4-chlorophenyl)-2-fluoroethylidene]-2-(1′H,3H-spiro[2-benzofuran-1,4′-piperidin]-1′-yl)-1,3-thiazol-4(5H)-one]	9.4

Same assay, conditions: membranes of HEK293 cells transiently transfected with human V1a receptor, Ki by Cheng-Prussoff, read-out: pKi hV1a (converted)

SMILES	Ki [nM]
O=C1N=C(N2CCC3(CC2)OCc2ccccc23)SC1=C1CCCNCC1 (racemic) [Example 81, (5E/Z)-5-(azepan-4-ylidene)-2-(1′H,3H-spiro[2-benzofuran-1,4′-piperidin]-1′-yl)-1,3-thiazol-4(5H)-one hydrochloride]	126
NCC(=C1SC(N2CCC3(CC2)OCc2ccccc23)=NC1=O)c1ccccc1 (racemic) [Example 160, (5E/Z)-5-(2-amino-1-phenylethylidene)-2-(1′H,3H-spiro[2-benzofuran-1,4′-piperidin]-1′-yl)-1,3-thiazol-4(5H)-one trifluoroacetate]	5.01
